Entries after “also recorded” stand apart in the source; their conditions may differ. Like-named read-outs stand apart in the source and are kept apart here.
How the values were obtained:
TcdA and TcdB holotoxins [1] = format: biochemical, Clostridium difficile; conditions: for AC50: read-out: AC50 (concentration that provides half the maximum activity)
Description: (§1) In Vitro Testing of Nitroso-InsP6 Derivatives. In vitro testing and measurement of binding affinities of compounds are performed using toxin cleavage assays, and by radioligand or BIACORE-toxin binding studies, respectively. For medium throughput toxin cleavage assays, autocleavage of 1 μg TcdA and TcdB holotoxins is performed in 25 μL 20 mM Tris-HCI, 150 mM NaCI (pH 7.4) with and without InsP6 for 10-60 min at 37° C. (FIG. 6). Cleavage reactions are then stopped with SDS-PAGE loading buffer and boiling at 96° C. for 5 min. Samples are then run under reducing conditions on 4-20% gradient gels and cleavage products stained with GelcodeBiue™ for 1 hr and cleared in water overnight. AC50 and IC50 concentrations are calculated by measuring the relative absorbance of cleavage fragments relative to intact toxin using a LiCor Odyssey infrared scanner (λ=680 nm). Cleavage is plotted against ligand concentration using four-parameter logistic curve fitting on SigmaPlot 11.0 software. If the toxin cleavage efficiency remains unaltered in purified nitroso-InsP6 fractions, then toxin Rac1 glucosylation and cell rounding assays are initiated to evaluate cytoprotection in cell culture systems. […] Thus, enzymatic digestions of nitroso-InsP6 derivatives are carried out with EC 3.1.3.8 (type 3 phytase); EC 3.1.3.72 (type 5 phytase), and EC 3.1.3.26 (type 4/6 phytase) to test whether the NO-modifications are nonhydrolysable (e.g., FIG. 7).

phytase = conditions: FIG. 7
Description: In Vitro Testing of Nitroso-InsP6 Derivatives. In vitro testing and measurement of binding affinities of compounds are performed using toxin cleavage assays, and by radioligand or BIACORE-toxin binding studies, respectively. For medium throughput toxin cleavage assays, autocleavage of 1 μg TcdA and TcdB holotoxins is performed in 25 μL 20 mM Tris-HCI, 150 mM NaCI (pH 7.4) with and without InsP6 for 10-60 min at 37° C. (FIG. 6). Cleavage reactions are then stopped with SDS-PAGE loading buffer and boiling at 96° C. for 5 min. Samples are then run under reducing conditions on 4-20% gradient gels and cleavage products stained with GelcodeBiue™ for 1 hr and cleared in water overnight. AC50 and IC50 concentrations are calculated by measuring the relative absorbance of cleavage fragments relative to intact toxin using a LiCor Odyssey infrared scanner (λ=680 nm). Cleavage is plotted against ligand concentration using four-parameter logistic curve fitting on SigmaPlot 11.0 software. If the toxin cleavage efficiency remains unaltered in purified nitroso-InsP6 fractions, then toxin Rac1 glucosylation and cell rounding assays are initiated to evaluate cytoprotection in cell culture systems. […]

C. difficile = assay: Experimental CDI model, delivery by implanted mini-osmotic pumps; format: in vivo, mice; conditions: 12.5 mg/kg/day by 7 day mini-osmotic pumps, from 1 day before inoculation with 10^6 bacteria
From the text: In this set of experiments, vehicle treatment was associated with 100% mortality, vs. 40% and 10% for InsP6 and nitroso-InsP6 groups, respectively.
Because of the current uncertainty of the nitroso-InsP6 chemistry, there may be potential limitations to oral nitroso-InsP6 delivery as this molecule may show poor colonic bioavailability due to degradation and absorption in the small intestine.

TcdA and TcdB holotoxins [2] = target: TcdA and TcdB holotoxins (Clostridioides difficile, UniProt P18177); format: biochemical, Clostridium difficile
Chain of TcdA and TcdB holotoxins (Clostridioides difficile, UniProt P18177) (P18177 2-2366 limits assumed): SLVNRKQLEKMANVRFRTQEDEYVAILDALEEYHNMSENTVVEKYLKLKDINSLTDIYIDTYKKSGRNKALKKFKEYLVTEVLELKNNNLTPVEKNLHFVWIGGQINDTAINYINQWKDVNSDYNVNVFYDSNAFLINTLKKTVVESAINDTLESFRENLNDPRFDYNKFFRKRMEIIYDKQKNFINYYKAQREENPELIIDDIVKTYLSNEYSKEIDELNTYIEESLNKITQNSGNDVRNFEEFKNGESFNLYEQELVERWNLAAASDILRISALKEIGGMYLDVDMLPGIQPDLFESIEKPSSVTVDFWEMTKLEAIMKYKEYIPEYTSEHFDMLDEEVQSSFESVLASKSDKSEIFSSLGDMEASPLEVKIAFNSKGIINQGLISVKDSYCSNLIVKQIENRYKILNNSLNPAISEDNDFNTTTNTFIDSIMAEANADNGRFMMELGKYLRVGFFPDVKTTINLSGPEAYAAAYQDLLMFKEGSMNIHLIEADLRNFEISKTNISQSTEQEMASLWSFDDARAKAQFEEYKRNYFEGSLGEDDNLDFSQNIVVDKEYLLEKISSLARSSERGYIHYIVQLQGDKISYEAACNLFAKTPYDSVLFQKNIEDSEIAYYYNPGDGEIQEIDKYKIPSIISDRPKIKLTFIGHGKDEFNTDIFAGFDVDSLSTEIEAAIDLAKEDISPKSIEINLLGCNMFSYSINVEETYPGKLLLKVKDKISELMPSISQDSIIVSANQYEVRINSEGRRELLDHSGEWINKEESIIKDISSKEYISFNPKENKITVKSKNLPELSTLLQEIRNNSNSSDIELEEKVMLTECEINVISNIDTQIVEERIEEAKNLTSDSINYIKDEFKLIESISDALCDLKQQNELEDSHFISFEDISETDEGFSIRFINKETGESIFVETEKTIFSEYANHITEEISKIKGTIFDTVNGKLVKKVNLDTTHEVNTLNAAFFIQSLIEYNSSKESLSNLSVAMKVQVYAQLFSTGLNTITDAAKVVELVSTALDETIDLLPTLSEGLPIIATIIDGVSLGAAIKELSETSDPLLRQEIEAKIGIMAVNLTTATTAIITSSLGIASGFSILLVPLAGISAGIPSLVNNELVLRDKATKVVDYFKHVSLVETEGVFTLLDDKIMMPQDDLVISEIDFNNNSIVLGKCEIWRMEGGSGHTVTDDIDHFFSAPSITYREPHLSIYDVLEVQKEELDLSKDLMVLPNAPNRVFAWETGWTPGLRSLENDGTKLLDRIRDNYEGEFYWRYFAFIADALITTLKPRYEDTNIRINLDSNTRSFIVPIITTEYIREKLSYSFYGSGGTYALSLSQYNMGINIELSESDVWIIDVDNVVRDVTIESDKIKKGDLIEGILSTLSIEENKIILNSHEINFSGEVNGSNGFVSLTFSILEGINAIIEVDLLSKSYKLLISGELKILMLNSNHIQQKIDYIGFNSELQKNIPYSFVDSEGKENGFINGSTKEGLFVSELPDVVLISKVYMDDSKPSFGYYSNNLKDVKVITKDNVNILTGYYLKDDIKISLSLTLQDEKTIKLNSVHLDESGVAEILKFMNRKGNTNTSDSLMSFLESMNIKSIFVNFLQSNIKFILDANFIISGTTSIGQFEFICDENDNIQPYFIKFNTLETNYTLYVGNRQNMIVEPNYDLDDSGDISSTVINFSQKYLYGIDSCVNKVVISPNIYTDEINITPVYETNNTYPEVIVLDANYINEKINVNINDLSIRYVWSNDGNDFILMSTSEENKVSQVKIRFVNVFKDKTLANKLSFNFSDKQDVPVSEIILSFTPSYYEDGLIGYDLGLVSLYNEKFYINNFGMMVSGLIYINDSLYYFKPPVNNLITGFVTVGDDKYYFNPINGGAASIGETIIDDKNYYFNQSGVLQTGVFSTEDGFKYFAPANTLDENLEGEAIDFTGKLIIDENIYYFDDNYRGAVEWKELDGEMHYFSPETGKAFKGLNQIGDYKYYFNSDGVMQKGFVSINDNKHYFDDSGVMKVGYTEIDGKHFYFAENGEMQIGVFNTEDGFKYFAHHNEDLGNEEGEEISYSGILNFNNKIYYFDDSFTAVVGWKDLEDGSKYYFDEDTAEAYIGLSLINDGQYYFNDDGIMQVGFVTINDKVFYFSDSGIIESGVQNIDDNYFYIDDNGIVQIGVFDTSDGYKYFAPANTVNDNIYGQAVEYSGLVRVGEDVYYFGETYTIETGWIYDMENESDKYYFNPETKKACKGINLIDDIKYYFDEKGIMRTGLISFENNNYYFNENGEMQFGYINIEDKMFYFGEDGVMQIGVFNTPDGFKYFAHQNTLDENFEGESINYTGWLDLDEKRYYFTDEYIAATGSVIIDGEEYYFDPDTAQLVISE
Description: as §1

[3] = system: C. difficile (strain VPI 10463); assay: Murine CDI model, InsP6 given intragastrically; format: in vivo, C57BL/6 mice; conditions: for Protection of mice from CDI (survival): oral/intragastric 0.25 and 2.5 mg/kg/day, 10^6 C. difficile, survival at day 6
Description: FIGS. 3A-3D show therapeutic allostery and examples of the assays to test designed compounds. […] (FIGS. 3C-3D) Kaplan-Meier survival plots of infected mice. C57BL/6 mice were inoculated with 10^6 C. difficile.
Optimization of Phytase-Resistant InsP6 Analogues for CDI Therapy. Aspects of the present invention provide compositions and methods of neutralizing C. difficile exotoxins in the extracellular gut environment. […] C57BL/6 mice were administered antibiotics and then orally inoculated with 10^4-to-10^6 C. difficile (strain VPI 10463). Disease outcome measures included evidence of inflammation and fluid secretion in the caecum and colon of severely afflicted animals, and of characteristic pseudomembraneous histopathologic lesions in the colonic mucosa. […] The highest bacterial dose (10^6 CFU) was used to test for InsP6 efficacy given intra-gastrically (0.25-to-2.5 mg/kg/day; range is within the recommended oral daily dose for humans (1,020 mg/day)).

Caco-2 colonocytes = assay: Inhibition of toxin-induced cytotoxicity in Caco-2 colonocytes; format: cell-based; conditions: Homo sapiens, FIG. 3A right
[4] = Table 1, representative inositol analogs

## O=P(O)(O)OC1C(O)C(OP(=O)(O)O)C(OP(=O)(O)O)C(OP(=O)(O)O)C1O (stereo not drawn) [Myo-InsP4(2,6), myo-inositol-(1,3,4,5-tetrakisphosphate)]
TcdA and TcdB holotoxins [1]; [4]
  AC50: > 1000 µM

## O=P(O)(O)OC1C(O)C(OP(=O)(O)O)C(OP(=O)(O)O)C(OP(=O)(O)O)C1O (stereo not drawn) [Myo-InsP4(4,6), myo-inositol-(1,2,3,5-tetrakisphosphate)]
TcdA and TcdB holotoxins [1]; [4]
  AC50: > 1000 µM

## O=P(O)(O)OC1C(O)C(OP(=O)(O)O)C(OP(=O)(O)O)C(OP(=O)(O)O)C1OP(=O)(O)O (stereo not drawn) [Myo-InsP5(1), myo-inositol-(2,3,4,5,6-pentakisphosphate)]
TcdA and TcdB holotoxins [1]; [4]
  AC50: 8.67 µM

## O=P(O)(O)OC1C(O)C(OP(=O)(O)O)C(OP(=O)(O)O)C(OP(=O)(O)O)C1OP(=O)(O)O (stereo not drawn) [Myo-InsP5(2), myo-inositol-(1,3,4,5,6-pentakisphosphate)]
TcdA and TcdB holotoxins [1]; [4]
  AC50: 10.5 µM

## O=P(O)(O)OC1C(O)C(OP(=O)(O)O)C(OP(=O)(O)O)C(OP(=O)(O)O)C1OP(=O)(O)O (stereo not drawn) [Myo-InsP5(3), myo-inositol-(1,2,4,5,6-pentakisphosphate)]
TcdA and TcdB holotoxins [1]; [4]
  AC50: 95.6 µM

## O=P(O)(O)OC1[C@H](OP(=O)(O)O)[C@H](OP(=O)(O)O)C(O)[C@H](OP(=O)(O)O)[C@H]1OP(=O)(O)O (stereo partly drawn) [Myo-InsP5(4), myo-inositol-(1,2,3,5,6-pentakisphosphate)]
TcdA and TcdB holotoxins [1]
  AC50: > 1000 µM

## OP(O)(=S)OC1C(OP(O)(O)=S)C(OP(O)(O)=S)C(OP(O)(O)=S)C(OP(O)(O)=S)C1OP(O)(O)=S [Myo-InsP6(S), myo-inositol-(1,2,3,4,5,6-phosphorothioate)]
phytase
  Phytase resistance: increased phytase resistance
TcdA and TcdB holotoxins [1]; [4]
  AC50: 1.99 µM

## O=P(O)(O)O[C@H]1[C@H](OP(=O)(O)O)[C@@H](OP(=O)(O)O)[C@H](OP(=O)(O)O)[C@@H](OP(=O)(O)O)[C@H]1OP(=O)(O)O [Myo-InsP6, myo-inositol-hexakisphosphate]
C. difficile
  Mortality: 40%
TcdA and TcdB holotoxins [1]
  AC50: 14.8 µM
TcdA and TcdB holotoxins [2]; FIGS. 3A-3B
  IC50, C. difficile toxins autocleaved: 10 µM
TcdA and TcdB holotoxins [2]; TcdB, FIG. 3A left
  AC50, toxin autocleavage: 10 µM
[3]; 2.5 mg/kg group
  Statistical significance of the protective effect: statistically significant
[3]
  Protection of mice from CDI (survival): dose dependently protects mice from CDI; also recorded: dose-dependent protective effects
Caco-2 colonocytes
  IC50: 10 µM

## O[C@H]1[C@H](O)[C@@H](O)[C@H](O)[C@@H](O)[C@H]1O [myo-inositol, (1R,2R,3S,4S,5R,6S)-cyclohexane-1,2,3,4,5,6-hexol]
[3]
  Protection of mice from CDI (survival): not evident

## (1/3)-phospho-myo-inositol hexaakisphosphate [Myo-InsP7(1/3)]
TcdA and TcdB holotoxins [1]; [4]
  AC50: 3.04 µM

## inositolhexakissulfate [InS6]
TcdA and TcdB holotoxins [1]
  Toxin cleavage activity (preliminary studies): active compound

— US9200015B2, “Inositol hexakisphosphate analogs and uses thereof” (priority 2011, dated 2015)
